Results on ten compounds are retold here after paper PMC9103351, “Effects of the Bark Resin Extract of Garcinia nigrolineata on Chronic Stress-Induced Memory Deficit in Mice Model and the In Vitro Monoamine Oxidases and β-Amyloid Aggregation Inhibitory Activities of Its Prenylated Xanthone Constituents” (Molecules, 2022).

The IC50 is the midpoint of a concentration-inhibition curve.

For one test, the target named is T1, Aβ1-42 (Homo sapiens, UniProt P05067).
T1 construct: Aβ1-42 was dissolved in a 50 mM phosphate buffer (pH 7.4)
T1 sequence (P05067 672-713 limits assumed): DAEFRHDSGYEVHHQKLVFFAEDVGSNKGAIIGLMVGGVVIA
Put plainly: Thioflavin-T assay of Aβ1-42 self-aggregation inhibition. Particulars: for % Inhibition of Aβ Aggregation: Aβ1-42 10 µM, 24 h at 37 °C, Th-T fluorescence; for percent of self-aggregation of Aβ-(1-42): without any compound taken as 100%. In kind it is biochemical. The method, then:
A thioflavin-T (Th-T) assay was used to evaluate the ability of 1–6 and 8–10, isolated from GN bark resin extract, to inhibit Aβ42 aggregation. The presence of Aβ plaques in the brain appears to be related to cognitive decline and neurodegeneration.
The Thioflavin-T assay used to investigate the Aβ1-42 self-aggregation activity was performed as previously described. Aβ1-42 was dissolved in a 50 mM phosphate buffer (pH 7.4) to obtain a […] stock solution. […] In black and opaque 96-well plates, 2 µL of each compound were added at a concentration of 100 µM. Then, in each well, Aβ1-42 solution was added to give a final concentration of 10 µM and mixed thoroughly. Covered plates were left in the dark for 24 h at 37 °C without agitation. After incubation, each well was loaded with 190 µL of […] ThT in 50 mM glycine/NaOH buffer (pH 8.0), and fluorescence intensities were measured at 446 nm and 490 nm for excitation and emission, respectively. The percent inhibition of each compound was calculated and reported.

Another test has as its target T2, recombinant human MAO-A (Homo sapiens, UniProt P21397).
T2 construct: purchased Sigma-Aldrich
T2 sequence (P21397 1-527): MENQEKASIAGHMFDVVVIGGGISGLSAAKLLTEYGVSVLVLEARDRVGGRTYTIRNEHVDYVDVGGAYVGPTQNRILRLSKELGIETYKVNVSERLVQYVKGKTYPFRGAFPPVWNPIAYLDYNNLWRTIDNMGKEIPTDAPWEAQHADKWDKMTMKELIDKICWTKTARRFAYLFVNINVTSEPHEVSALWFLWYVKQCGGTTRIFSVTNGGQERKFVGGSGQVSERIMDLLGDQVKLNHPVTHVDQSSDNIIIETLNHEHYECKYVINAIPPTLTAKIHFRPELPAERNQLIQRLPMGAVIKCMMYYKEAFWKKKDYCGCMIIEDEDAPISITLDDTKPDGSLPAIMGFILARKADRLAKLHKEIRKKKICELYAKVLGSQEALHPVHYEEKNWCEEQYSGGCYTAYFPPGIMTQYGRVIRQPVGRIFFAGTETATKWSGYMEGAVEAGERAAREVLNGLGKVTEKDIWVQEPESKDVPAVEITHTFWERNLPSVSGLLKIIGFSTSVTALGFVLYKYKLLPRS
Kind of test: Inhibitory activity on recombinant human MAO-A (kynuramine, fluorescence). Format: biochemical. The following applies: for Si MAO-A: selective index from Ki values (Ki = IC50/(1 + [S]/Km)), Si = Ki (MAO-B)/Ki (MAO-A). The procedure: (§1) The inhibitory activity assays of the isolated compound with recombinant human MAO-A and MAO-B (Sigma-Aldrich, St. Louis, MO, USA) were carried out with some modification as described recently by. In brief, 1–6 and 8–10 were first dissolved in DMSO to obtain a stock solution with a concentration of 25 mM. The activity was determined by serial dilution of each concentration of the compounds. For the MAO-A inhibitor assay, 4.5 µL of kynuramine (Sigma-Aldrich, St. Louis, MO, USA) were mixed with 234.75 µL of potassium phosphate buffer (100 mM, pH 7.4, made isotonic with KCl, 20.2 mM). Then, 3 µL of kynuramine were mixed with 236.25 µL of potassium phosphate buffer (pH 7.4) for the MAO-B inhibitor assay. The reaction was stopped by adding 400 µL of 2N NaOH and 1000 µL of water. The fluorescence of 4-hydroxyquinoline (Sigma-Aldrich, St. Louis, MO, USA), a by-product of this reaction, was measured with the excitation wavelength at 310 nm and the emission wavelength at 400 nm. The initial rates of MAO-catalyzed kynuramine oxidation were plotted versus the logarithm of the inhibitor concentrations and reported as IC50 values by using the Prism software package (GraphPad Software, version 5, San Diego, CA, USA) to evaluate quantitative. IC50 values were converted to Ki values by using the equation Ki = IC50/(1 + [S]/Km).

In the next test the target is T3, recombinant human MAO-B (Homo sapiens, UniProt P27338).
T3 construct: purchased Sigma-Aldrich
T3 sequence (P27338 1-520): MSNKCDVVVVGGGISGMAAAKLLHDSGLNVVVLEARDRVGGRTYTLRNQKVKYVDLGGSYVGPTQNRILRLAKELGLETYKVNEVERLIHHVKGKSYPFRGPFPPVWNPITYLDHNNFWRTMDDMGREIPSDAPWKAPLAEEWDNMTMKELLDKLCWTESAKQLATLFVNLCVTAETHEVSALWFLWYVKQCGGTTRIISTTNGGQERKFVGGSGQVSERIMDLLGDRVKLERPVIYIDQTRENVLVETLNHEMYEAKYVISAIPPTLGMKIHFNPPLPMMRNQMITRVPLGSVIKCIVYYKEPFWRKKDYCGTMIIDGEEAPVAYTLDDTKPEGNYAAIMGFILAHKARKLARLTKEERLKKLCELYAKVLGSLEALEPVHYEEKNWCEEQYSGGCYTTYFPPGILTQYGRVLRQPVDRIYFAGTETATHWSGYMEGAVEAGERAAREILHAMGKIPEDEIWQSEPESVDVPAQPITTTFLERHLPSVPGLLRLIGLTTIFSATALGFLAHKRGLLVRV
Kind of test: Inhibitory activity on recombinant human MAO-B (kynuramine, fluorescence). Format: biochemical. Particulars: for isoenzyme selectivity by selectivity index (MAO-B): from Si values; for IC50: recombinant human MAO-B, kynuramine substrate. The procedure:
as §1

The subject of a further test is Aβ (1-42). Further details: method as in PMID 27038926. Particulars: Aβ (1-42) incubated with compound 6 days at 37 °C; cited from earlier work.
Where [1] appears, read: recombinant human MAO-A, kynuramine substrate, read-out: IC50 MAO-A.
Where [2] appears, read: selective index from Ki values (Ki = IC50/(1 + [S]/Km)), Si = Ki (MAO-B)/Ki (MAO-A).

Structures are written as SMILES. Like-named read-outs stand apart in the source and are kept apart here. Some results are limits rather than exact numbers.

Regarding `COc1cc2oc3c(OC)c(O)ccc3c(=O)c2c(O)c1CC=C(C)C` [Compound 1, cowagarcinone C], on Aβ1-42 (compound 100 µM), the “% Inhibition of Aβ Aggregation” value is recorded as 46.79 ± 5.46% and the “percent of self-aggregation of Aβ-(1-42)” value came out at 53.21 ± 5.46%. In addition, the half-inhibitory concentration (IC50) on recombinant human MAO-A (setting [1]) turned out to be 100.2 ± 0.35 µM. Besides, the “Si MAO-A” value at recombinant human MAO-A came out at 3.407. At recombinant human MAO-B, the “isoenzyme selectivity by selectivity index (MAO-B)” value is given as “selectivity index on MAO-B” and the half-inhibitory concentration (IC50) was determined as 17.99 ± 0.11 µM. Besides, on recombinant human MAO-B (setting [2]), the “Si MAO-B” value was 0.294.

In the case of `COc1cc2c(=O)c3c(O)c(C/C=C(\C)CCC=C(C)C)c(O)cc3oc2cc1O` [Compound 2, cowaxanthone], at Aβ1-42 (compound 100 µM), the “% Inhibition of Aβ Aggregation” value is recorded as 58.56 ± 3.28% and the “percent of self-aggregation of Aβ-(1-42)” value is 41.44 ± 3.28%. In addition, the half-maximal inhibitory concentration (IC50) at recombinant human MAO-A (setting [1]) came to 119.8 ± 0.75 µM. Besides, at recombinant human MAO-A, the “Si MAO-A” value is listed as 0.307. Further, the IC50 at recombinant human MAO-B was 238.5 ± 2.03 µM. For the same compound, on recombinant human MAO-B (setting [2]), the “Si MAO-B” value is on record as 3.254.

As for `COc1c(O)cc2oc3cc(O)c(CC=C(C)C)c(O)c3c(=O)c2c1CC=C(C)C` [Compound 3, α-mangostin], the “% Inhibition of Aβ Aggregation” value on Aβ1-42 (compound 100 µM) is “Not detected”. Besides, the IC50 at recombinant human MAO-A (setting [1]) was 79.81 ± 0.5 µM. Moreover, the “Si MAO-A” value at recombinant human MAO-A is 1.218. Also, on recombinant human MAO-B, the “isoenzyme selectivity by selectivity index (MAO-B)” value was “selectivity index on MAO-B” and the IC50 worked out at 40.1 ± 0.89 µM. The “Si MAO-B” value at recombinant human MAO-B (setting [2]) stood at 0.821. Besides, in the test on Aβ (1-42), the amyloid aggregation inhibition entry is “inhibiting amyloid aggregation”.

Consider `COc1cc2oc3cc(O)c(CC=C(C)C)c(O)c3c(=O)c2c(CC=C(C)C)c1OC` [Compound 4, cowaxanthone B], for which, on Aβ1-42 (compound 100 µM), the “% Inhibition of Aβ Aggregation” value is given as “Not detected”. The concentration for half-maximal inhibition (IC50) at recombinant human MAO-A (setting [1]) stood at 40.21 ± 0.35 µM; on recombinant human MAO-B it was 15.6 ± 0.26 µM. Also, on recombinant human MAO-A, the “Si MAO-A” value came to 1.579. Moreover, the “isoenzyme selectivity by selectivity index (MAO-B)” value at recombinant human MAO-B was “selectivity index on MAO-B”. Besides, on recombinant human MAO-B (setting [2]), the “Si MAO-B” value is reported as 0.6333.

Consider `COc1c(O)cc2oc3cc(O)c(CC=C(C)C)c(O)c3c(=O)c2c1C/C=C(\C)CCC=C(C)C` [Compound 5, cowanin], for which the “% Inhibition of Aβ Aggregation” value at Aβ1-42 (compound 100 µM) is “Not detected”. On recombinant human MAO-A, the IC50 came to 7.1 ± 0.03 µM and the “Si MAO-A” value is given as 0.266. For the same compound, on recombinant human MAO-B, the “Si MAO-B” value worked out at 3.762 and the IC50 was 16.3 ± 1.44 µM.

As to `COc1c(O)cc2oc3cc4c(c(O)c3c(=O)c2c1C/C=C(\C)CCC=C(C)C)C=CC(C)(C)O4` [Compound 6, fuscaxanthone A], on Aβ1-42 (compound 100 µM), the “% Inhibition of Aβ Aggregation” value is listed as “Not detected”. In addition, the IC50 at recombinant human MAO-A (setting [1]) came out at 69.92 ± 0.06 µM; on recombinant human MAO-B, 0.07 ± 0.01 µM. Moreover, the “Si MAO-A” value at recombinant human MAO-A is 558.273. Moreover, the “isoenzyme selectivity by selectivity index (MAO-B)” value at recombinant human MAO-B is reported as “selectivity index on MAO-B”. The “Si MAO-B” value at recombinant human MAO-B (setting [2]) was 0.00179.

As for `COc1c(O)cc2oc3cc4occc4c(O)c3c(=O)c2c1C/C=C(\C)CCC=C(C)C` [Compound 8, xanthochymusxanthone A], the “% Inhibition of Aβ Aggregation” value at Aβ1-42 (compound 100 µM) was “Not detected”. For the same compound, the half-maximal inhibitory concentration (IC50) on recombinant human MAO-A (setting [1]) was 100.5 ± 0.44 µM; at recombinant human MAO-B, above 400 µM. Moreover, the “Si MAO-A” value at recombinant human MAO-A is below 0.153. Moreover, on recombinant human MAO-B (setting [2]), the “Si MAO-B” value is 0.6522.

In the case of `COc1c(O)c(CC=C(C)C)c2oc3cc(O)c(CC=C(C)C)c(O)c3c(=O)c2c1CC=C(C)C` [Compound 9, 7-O-methylgarcinone E], the “% Inhibition of Aβ Aggregation” value on Aβ1-42 (compound 100 µM) was “Not detected”. For the same compound, at recombinant human MAO-A (setting [1]), the concentration for half-maximal inhibition (IC50) worked out at 25.4 ± 0.63 µM. The “Si MAO-A” value at recombinant human MAO-A is recorded as 38.705. At recombinant human MAO-B, the “isoenzyme selectivity by selectivity index (MAO-B)” value is given as “selectivity index on MAO-B” and the concentration for half-maximal inhibition (IC50) was found to be 0.4 ± 0.01 µM. The “Si MAO-B” value on recombinant human MAO-B (setting [2]) was determined as 0.0256.

Turning to `COc1c(O)c(CC=C(C)C)c2oc3cc(O)c(CC=C(C)C)c(O)c3c(=O)c2c1C/C=C(\C)CCC=C(C)C` [Compound 10, cowagarcinone A], at Aβ1-42 (compound 100 µM), the “% Inhibition of Aβ Aggregation” value was “Not detected”. Besides, the IC50 at recombinant human MAO-A (setting [1]) was 3.58 ± 0.02 µM; on recombinant human MAO-B, above 400 µM. The “Si MAO-A” value at recombinant human MAO-A is below 0.005. Moreover, the “Si MAO-B” value at recombinant human MAO-B (setting [2]) was determined as 183.168.

Turning to `COc1cc(/C=C/C(=O)CC(=O)/C=C/c2ccc(O)c(OC)c2)ccc1O` [Curcumin, reference compound], at Aβ1-42 (positive control at 5 µM), the “% Inhibition of Aβ Aggregation” value is reported as 51.73 ± 2.89% and the “percent of self-aggregation of Aβ-(1-42)” value was determined as 48.27 ± 2.89%.
